In ChEMBL document CHEMBL4477154, “Gersemiols A-C and Eunicellol A, Diterpenoids from the Arctic Soft Coral Gersemia fruticosa” (2016):
≈ marks a conversion by molar mass, not a printed value. Calls of active or inactive are those of the source. No cut-off for these calls is given here.

Columns and labels:
A549 = experiment: Cytotoxicity against human A549 cells assessed as cell growth inhibition at 15 ug/ml after 72 hrs by MTT assay; format: functional, cell-based
MCF7 = experiment: Cytotoxicity against human MCF7 cells assessed as cell growth inhibition at 15 ug/ml after 72 hrs by MTT assay; format: functional, cell-based
HT-29 = experiment: Cytotoxicity against human HT-29 cells assessed as cell growth inhibition at 15 ug/ml after 72 hrs by MTT assay; format: functional, cell-based
MIA PaCa-2 = experiment: Cytotoxicity against human MIAPaCa2 cells assessed as cell growth inhibition at 15 ug/ml after 72 hrs by MTT assay; format: functional, cell-based
HepG2 = experiment: Cytotoxicity against human HepG2 cells assessed as cell growth inhibition at 15 ug/ml after 72 hrs by MTT assay; format: functional, cell-based
Staphylococcus aureus = experiment: Antibacterial activity against methicillin-resistant Staphylococcus aureus after 20 hrs by spectrophotometry; format: functional

SMILES	growth inhibition (GI) (A549)	growth inhibition (GI) (MCF7)	growth inhibition (GI) (HT-29)	growth inhibition (GI) (MIA PaCa-2)	growth inhibition (GI) (HepG2)	MIC50 (Staphylococcus aureus) [µg/mL]
CC1=CCC[C@]2(C)CC[C@@]3(O)[C@@H]([C@@H](C(C)C)CC[C@@H]3C)[C@H]12	inactive	inactive	inactive	inactive	inactive	
CC1=CCC[C@]2(C)CC[C@@H]3[C@@H]([C@@H](C(C)C)CC[C@]3(C)O)[C@H]12	inactive	inactive	inactive	inactive	inactive	
C=C1CCC[C@]2(C)CC[C@@]3(O)[C@@H]([C@@H](C(C)C)CC[C@@H]3C)[C@H]12	inactive	inactive	inactive	inactive	inactive	48 (≈ 165 µM)
